Target: T1, A2B adenosine receptor (Homo sapiens, UniProt P29275)
T1 construct: An endogenous A2B adenosine receptor coupled to cyclic AMP generation in human embryonic kidney (HEK-293) cells; endogenous in cells
T1 sequence (P29275 1-332): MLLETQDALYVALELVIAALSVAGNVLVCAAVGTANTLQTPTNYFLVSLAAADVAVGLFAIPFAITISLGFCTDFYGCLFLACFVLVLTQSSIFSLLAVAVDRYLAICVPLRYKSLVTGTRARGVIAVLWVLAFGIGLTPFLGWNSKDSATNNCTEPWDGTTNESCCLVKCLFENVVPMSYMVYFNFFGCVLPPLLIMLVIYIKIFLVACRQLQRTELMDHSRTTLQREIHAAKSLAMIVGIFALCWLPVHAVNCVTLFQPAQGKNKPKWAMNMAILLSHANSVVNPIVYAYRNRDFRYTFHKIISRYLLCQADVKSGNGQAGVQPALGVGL
Experiment: A2B antagonist cAMP assay (inhibition of the NECA response, HTRF)
Assay type: cell-based
Settings: test compound at 1×10^−7M; percent inhibition of the control response to 1 μM NECA (cAMP)
Description: Representative compounds of the present invention have been tested for their activity as A2B antagonists and shown to be active. These values were obtained by using the following methodology.
The cells are suspended in HBSS buffer (Invitrogen) complemented with 20 mM HEPES (pH 7.4), then distributed in microplates at a density of 5×10^3 cells/well and preincubated for 5 min at room temperature in the presence of HBSS (basal control), the test compound or the reference antagonist. Thereafter, the reference agonist NECA is added at a final concentration of 1 μM. […] Following 10 min incubation at 37° C., the cells are lysed and the fluorescence acceptor (D2-labeled cAMP) and fluorescence donor (anti-cAMP antibody labeled with europium cryptate) are added. After 60 min at room temperature, the fluorescence transfer is measured at λex=337 nm and λem=620 and 665 nm using a microplate reader (Rubystar, BMG). The cAMP concentration is determined by dividing the signal measured at 665 nm by that measured at 620 nm (ratio). The results are expressed as a percent inhibition of the control response to 1 μM NECA. The standard reference antagonist is XAC, which is tested in each experiment at several concentrations to generate a concentration-response curve from which its IC50 value is calculated.
Reference: Cooper, J., Hill, S. J., and Alexander, S. P. H. (1997), An endogenous A2B adenosine receptor coupled to cyclic AMP generation in human embryonic kidney (HEK-293) cells, Brit. J. Pharmacol., 122: 546.

SMILES | inhibition at 0.1 µM [%]
CN(CC#Cc1nc2c([nH]1)c(=O)n(C1CC1)c(=O)n2C1CC1)C(=O)Oc1ccc(F)cc1 [Example 1, 1,3-Dicyclopropyl-8-(3-(methyl((4-fluorophenoxy)carbonyl)amino)prop-1-yn-1-yl)xanthine] | > 20
CCCn1c(=O)n(C2CC2)c(=O)c2[nH]c(C#CCN(C)C(=O)Oc3ccc(F)cc3)nc21 [Example 2, 1-Cyclopropyl-3-propyl-8-(3-(methyl((4-fluorophenoxy)carbonyl)amino)prop-1-yn-1-yl)xanthine] | > 20
CN(CC#Cc1nc2c([nH]1)c(=O)n(C1CC1)c(=O)n2C1CC1)C(=O)Oc1ccccc1 [Example 3, 1,3-Dicyclopropyl-8-(3-(methyl(phenoxycarbonyl)amino)prop-1-yn-1-yl)xanthine] | > 5
CN(CC#Cc1nc2c([nH]1)c(=O)n(C1CC1)c(=O)n2C1CC1)C(=O)Oc1cccc(C(F)(F)F)c1 [Example 4, 1,3-Dicyclopropyl-8-(3-(methyl((3-(trifluoromethyl)phenoxy)carbonyl)-amino)prop-1-yn-1-yl)xanthine] | > 5
COc1ccccc1OC(=O)N(C)CC#Cc1nc2c([nH]1)c(=O)n(C1CC1)c(=O)n2C1CC1 [Example 5, 1,3-Dicyclopropyl-8-(3-(methyl((2-methoxyphenoxy)carbonyl)amino)prop-1-yn-1-yl)xanthine] | > 5
CN(CC#Cc1nc2c([nH]1)c(=O)n(C1CC1)c(=O)n2C1CC1)C(=O)Oc1ccccc1Cl [Example 6, 8-(3-(((2-Chlorophenoxy)carbonyl)(methyl)amino)prop-1-yn-1-yl)-1,3-dicyclopropylxanthine] | > 5
CN(C(=O)OCC#Cc1nc2c([nH]1)c(=O)n(C1CC1)c(=O)n2C1CC1)c1ccccc1 [Example 7, 1,3-Dicyclopropyl-8-(3-((methyl(phenyl)carbamoyl)oxy)prop-1-yn-1-yl)xanthine] | > 5
CN(C(=O)OCC#Cc1nc2c([nH]1)c(=O)n(C1CC1)c(=O)n2C1CC1)c1ccc(Cl)cc1 [Example 8, 8-(3-(((4-Chlorophenyl)(methyl)carbamoyl)oxy)prop-1-yn-1-yl)-1,3-dicyclopropylxanthine] | > 20

— US9593118B2, “Xanthine-substituted alkynyl carbamates/reverse carbamates as A2B antagonists” (Lewis and Clark Pharmaceuticals, Inc., priority 2015, dated 2017)
